Here are results for 91 compounds from ChEMBL document CHEMBL2218064, “Structure-activity relationship data for chemical series of antagonists of the P2X7 receptor (Supplementary Bioactivity Data for publication CHEMBL1157114)”.

Molecules are shown by their SMILES.

This experiment addresses T1, P2X purinoceptor 7 (Homo sapiens, UniProt Q99572).
T1 sequence (Q99572 whole entry): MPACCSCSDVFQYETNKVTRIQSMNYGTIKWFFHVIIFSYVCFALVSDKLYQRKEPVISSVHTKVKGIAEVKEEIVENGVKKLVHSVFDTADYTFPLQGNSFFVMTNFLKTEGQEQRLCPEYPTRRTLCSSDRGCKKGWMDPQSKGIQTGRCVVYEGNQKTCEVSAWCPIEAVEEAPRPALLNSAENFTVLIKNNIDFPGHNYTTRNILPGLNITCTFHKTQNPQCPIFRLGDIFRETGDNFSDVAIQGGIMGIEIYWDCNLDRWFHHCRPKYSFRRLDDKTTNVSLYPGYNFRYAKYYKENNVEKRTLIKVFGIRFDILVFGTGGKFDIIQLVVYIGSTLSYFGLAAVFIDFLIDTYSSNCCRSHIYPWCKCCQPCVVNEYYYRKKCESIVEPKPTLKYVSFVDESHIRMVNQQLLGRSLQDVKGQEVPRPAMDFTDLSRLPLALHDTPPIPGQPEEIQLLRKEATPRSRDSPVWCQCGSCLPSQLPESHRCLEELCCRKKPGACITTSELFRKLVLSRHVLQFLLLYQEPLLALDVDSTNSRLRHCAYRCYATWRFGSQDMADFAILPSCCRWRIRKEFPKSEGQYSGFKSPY
The experiment can be described thus: SUPPLEMENTARY: Inhibition of human P2X7 receptor assessed as inhibition of ethidium bromide accumulation. Same assay as CHEMBL1103860.

Consider `Cc1cccc(C)c1CNC(=O)Cc1c(C)nn(-c2ccccc2)c1C`, for which the IC50 is 63.1 nM.

In the case of `Cc1c(CC(=O)NCc2ccc(F)cc2Cl)cnn1-c1ccc(F)cc1`, the half-inhibitory concentration (IC50) was 251 nM.

Regarding `Cc1nn(-c2ncccc2C(F)(F)F)c(C)c1CC(=O)NCc1ccc(F)cc1Cl`, the IC50 is 501 nM.

Consider `Cc1nn(C2CCN(Cc3ccccc3)CC2)c(C)c1CC(=O)NCc1ccc(F)cc1Cl`, for which the IC50 was 63.1 nM.

For the compound `Cc1nn(C(C)C)c(C)c1CC(=O)NCc1ccc(F)cc1Cl`, the half-inhibitory concentration (IC50) was 631 nM.

Turning to `Cc1nn(CC2CCCCC2)c(C)c1CC(=O)NCc1ccc(F)cc1Cl`, the IC50 is 631 nM.

As for `CCn1nc(C)c(CC(=O)NCc2ccc(F)cc2Cl)c1C`, the IC50 is 200 nM.

Take `Cc1nn(CC(C)(C)C)c(C)c1CC(=O)NCc1ccc(F)cc1Cl`: the IC50 is 100 nM.

As for `Cc1nn(Cc2ccccc2N(C)C)c(C)c1CC(=O)NCc1ccc(F)cc1Cl`, the half-inhibitory concentration (IC50) is 251 nM.

In the case of `Cc1nn(C2CCN(C)CC2)c(C)c1CC(=O)NCc1ccc(F)cc1Cl`, the 50% inhibitory concentration (IC50) was 126 nM.

In the case of `Cc1nn(CC(F)(F)F)c(C)c1CC(=O)NCc1ccc(F)cc1Cl`, the half-inhibitory concentration (IC50) was 316 nM.

Turning to `Cc1nn(Cc2nc3ccccc3s2)c(C)c1CC(=O)NCc1ccc(F)cc1Cl`, the IC50 is 398 nM.

Regarding `Cc1nn(-c2ccc(C(=O)NCc3ccccn3)cc2)c(C)c1CC(=O)NCc1ccc(F)cc1Cl`, the IC50 is 15.8 nM.

For the compound `Cc1nn(CC(C)C)c(C)c1CC(=O)NCc1ccc(F)cc1Cl`, the IC50 was 251 nM.

Take `Cc1nn(C2CCCC2)c(C)c1CC(=O)NCc1ccc(F)cc1Cl`: the concentration for half-maximal inhibition (IC50) is 501 nM.

Regarding `Cc1nn(C2CCOCC2)c(C)c1CC(=O)NCc1ccc(F)cc1Cl`, the half-maximal inhibitory concentration (IC50) was 1260 nM.

`O=C(Cc1cnn(-c2ccc(F)cc2)c1C(F)(F)F)NCc1ccc(F)cc1Cl`: the concentration for half-maximal inhibition (IC50) is 1260 nM.

`Cc1ccc(-n2nc(C)c(CC(=O)NCc3ccc(F)cc3Cl)c2C)nn1`: the IC50 was 631 nM.

Turning to `Cc1nn(CC(=O)O)c(C)c1CC(=O)NCc1ccc(F)cc1Cl`, the IC50 was 1260 nM.

Regarding `CCN(CC)C(=O)Cn1nc(C)c(CC(=O)NCc2ccc(F)cc2Cl)c1C`, the IC50 was 501 nM.

With `Cc1nn(Cc2ccncc2)c(C)c1CC(=O)NCc1ccc(F)cc1Cl`, the IC50 is 316 nM.

As to `Cc1cc(-n2nc(C)c(CC(=O)NCc3ccc(F)cc3Cl)c2C)nc(C)n1`, the IC50 is 200 nM.

`C=C(C)CN1C(=O)CC[C@H]1C(=O)NCc1ccc(F)cc1Cl`: the IC50 was 398 nM.

With `Cc1ccc(-n2nc(C)c(CC(=O)NCc3ccc(F)cc3Cl)c2C)cn1`, the IC50 was 251 nM.

As to `Cc1nn(Cc2ccccn2)c(C)c1CC(=O)NCc1ccc(F)cc1Cl`, the half-inhibitory concentration (IC50) was 398 nM.

As for `Cc1nn(C(C)(C)C)c(C)c1CC(=O)NCc1ccc(F)cc1Cl`, the IC50 is 398 nM.

For the compound `Cc1nn(CCN2CCOCC2)c(C)c1CC(=O)NCc1ccc(F)cc1Cl`, the IC50 was 251 nM.

`Cc1ccc(-n2nc(C)c(CC(=O)NCc3ccc(F)cc3Cl)c2C)c(C)n1`: the IC50 is 398 nM.

As to `Cc1ccncc1-n1nc(C)c(CC(=O)NCc2ccc(F)cc2Cl)c1C`, the IC50 was 398 nM.

Take `Cc1cc(-n2nc(C)c(CC(=O)NCc3ccc(F)cc3Cl)c2C)ccn1`: the IC50 was 316 nM.

As to `CCN(CC)CCn1nc(C)c(CC(=O)NCc2ccc(F)cc2Cl)c1C`, the IC50 was 200 nM.

Turning to `Cc1nn(CCN2CCCCC2)c(C)c1CC(=O)NCc1ccc(F)cc1Cl`, the IC50 was 50.1 nM.

As to `Cc1nn(CCN2CCCC2)c(C)c1CC(=O)NCc1ccc(F)cc1Cl`, the IC50 is 126 nM.

Turning to `Cc1ccccc1-n1cc(CC(=O)NCc2ccc(F)cc2Cl)cn1`, the half-maximal inhibitory concentration (IC50) is 631 nM.

With `CCc1ccccc1-n1cc(CC(=O)NCc2ccc(F)cc2Cl)cn1`, the IC50 was 251 nM.

In the case of `Cc1nn(-c2ccccc2)c(C)c1CC(=O)NCc1cccc(Cl)c1C`, the half-maximal inhibitory concentration (IC50) was 31.6 nM.

For the compound `Cc1nn(-c2ccccc2)c(C)c1CC(=O)NCc1ccc(F)c(F)c1`, the IC50 was 251 nM.

For `Cc1nn(-c2ccccc2)c(C)c1CC(=O)NCc1ccc(F)c(F)c1F`, the IC50 is 63.1 nM.

As for `Cc1ccc(C)c(CNC(=O)Cc2c(C)nn(-c3ccccc3)c2C)c1`, the IC50 was 794 nM.

For `Cc1ccc(Cl)cc1CNC(=O)Cc1c(C)nn(-c2ccccc2)c1C`, the IC50 is 126 nM.

Turning to `Cc1cccc(Cl)c1CNC(=O)Cc1c(C)nn(-c2ccccc2)c1C`, the concentration for half-maximal inhibition (IC50) is 39.8 nM.

Regarding `Cc1nn(CCNCC(C)C)c(C)c1CC(=O)NCc1ccc(F)cc1Cl`, the IC50 was 39.8 nM.

With `Cc1ncccc1-n1nc(C)c(CC(=O)NCc2ccc(F)cc2Cl)c1C`, the IC50 is 79.4 nM.

Regarding `Cc1cncc(-n2nc(C)c(CC(=O)NCc3ccc(F)cc3Cl)c2C)c1`, the IC50 was 316 nM.

As to `Cc1nn(CCNCCO)c(C)c1CC(=O)NCc1ccc(F)cc1Cl`, the concentration for half-maximal inhibition (IC50) is 100 nM.

As for `Cc1nn(CCN(C)CCO)c(C)c1CC(=O)NCc1ccc(F)cc1Cl`, the concentration for half-maximal inhibition (IC50) was 200 nM.

As to `COCCNCCn1nc(C)c(CC(=O)NCc2ccc(F)cc2Cl)c1C`, the IC50 is 126 nM.

As for `Cc1nn(CCO)c(C)c1CC(=O)NCc1cccc(Cl)c1C`, the IC50 was 63.1 nM.

With `Cc1nn(CCN)c(C)c1CC(=O)NCc1ccc(F)cc1Cl`, the 50% inhibitory concentration (IC50) was 158 nM.

As to `COCCn1nc(C)c(CC(=O)NCc2ccc(F)cc2Cl)c1C`, the IC50 is 398 nM.

With `Cc1nn(-c2ccccc2)c(C)c1CC(=O)NCc1cc(Cl)ccc1F`, the IC50 was 631 nM.

For the compound `Cc1nn(CCN2CCOCC2)c(C)c1CC(=O)NCc1cccc(Cl)c1C`, the IC50 was 126 nM.

As to `Cc1nn(CC(C)(C)O)c(C)c1CC(=O)NCc1ccc(F)cc1Cl`, the half-maximal inhibitory concentration (IC50) is 316 nM.

On to `Cc1nn(CC(C)(C)O)c(C)c1CC(=O)NCc1ccc(F)c(F)c1F`, for which the IC50 is 794 nM.

Regarding `Cc1nn(CC(C)(C)O)c(C)c1CC(=O)NCc1cccc(Cl)c1C`, the IC50 is 158 nM.

In the case of `Cc1cccc(Cl)c1CNC(=O)Cc1c(C)nn(CC(C)(C)O)c1C`, the IC50 is 200 nM.

Turning to `CCOc1cccc(-n2cc(CC(=O)NCc3ccc(F)cc3Cl)cn2)n1`, the IC50 is 1260 nM.

With `Cc1nn(-c2ncccn2)c(C)c1CC(=O)NCc1ccc(F)c(F)c1F`, the half-inhibitory concentration (IC50) is 79.4 nM.

Regarding `O=C(Cc1cnn(CCO)c1C(F)(F)F)NCc1ccc(F)cc1Cl`, the half-inhibitory concentration (IC50) is 200 nM.

`O=C(Cc1cn(CCO)nc1C(F)(F)F)NCc1ccc(F)cc1Cl`: the IC50 was 398 nM.

Consider `O=C(Cc1cn(CCNCCO)nc1C(F)(F)F)NCc1ccc(F)cc1Cl`, for which the IC50 was 631 nM.

As for `O=C(Cc1cn(CCNC2CCOCC2)nc1C(F)(F)F)NCc1ccc(F)cc1Cl`, the IC50 is 794 nM.

As to `O=C(Cc1cnn(-c2ccc(F)cc2)c1Br)NCc1ccc(F)cc1Cl`, the IC50 was 398 nM.

On to `COc1ccc(-n2nc(C)c(CC(=O)NCc3ccc(F)cc3Cl)c2C)cn1`, for which the IC50 was 251 nM.

With `COc1cncc(-n2nc(C)c(CC(=O)NCc3ccc(F)cc3Cl)c2C)c1`, the IC50 was 398 nM.

Turning to `COc1ncccc1-n1nc(C)c(CC(=O)NCc2ccc(F)cc2Cl)c1C`, the IC50 was 251 nM.

As for `CN(C)CCn1ncc(CC(=O)NCc2ccc(F)cc2Cl)c1C(F)(F)F`, the half-maximal inhibitory concentration (IC50) was 1260 nM.

Regarding `O=C(Cc1cnn(CCNC2CCOCC2)c1C(F)(F)F)NCc1ccc(F)cc1Cl`, the IC50 is 1260 nM.

Consider `O=C(Cc1cnn(CCN2CCCCC2)c1C(F)(F)F)NCc1ccc(F)cc1Cl`, for which the IC50 is 794 nM.

`COCCNCCn1ncc(CC(=O)NCc2ccc(F)cc2Cl)c1C(F)(F)F`: the 50% inhibitory concentration (IC50) was 794 nM.

As to `CCN1C(=O)CC[C@H]1C(=O)NCc1ccc(F)c(F)c1F`, the IC50 is 158 nM.

As to `CCN1C(=O)CC[C@H]1C(=O)NCc1ccccc1Br`, the IC50 is 251 nM.

For `CCN1C(=O)CC[C@H]1C(=O)NCc1c(F)cccc1Cl`, the half-maximal inhibitory concentration (IC50) is 1000 nM.

As for `CCN1C(=O)CC[C@H]1C(=O)NCc1ccc(Cl)cc1C`, the half-maximal inhibitory concentration (IC50) is 25.1 nM.

With `CCN1C(=O)CC[C@H]1C(=O)NCc1c(C)cc(C)cc1C`, the IC50 was 50.1 nM.

As for `CCN1C(=O)CC[C@H]1C(=O)NCc1c(F)ccc(F)c1Cl`, the half-maximal inhibitory concentration (IC50) was 794 nM.

Regarding `CN1C(=O)CC[C@H]1C(=O)NCc1ccc(Cl)cc1Cl`, the half-inhibitory concentration (IC50) was 12.6 nM.

Take `CCN1C(=O)[C@H](Cc2ccccc2)C[C@H]1C(=O)NCc1ccc(F)cc1Cl`: the concentration for half-maximal inhibition (IC50) is 100 nM.

In the case of `CCN1C(=O)CC[C@H]1C(=O)NCc1ccc(Cl)c(Cl)c1`, the IC50 is 251 nM.

In the case of `CCN1C(=O)CC[C@H]1C(=O)NCc1ccc(F)cc1C(F)(F)F`, the 50% inhibitory concentration (IC50) was 39.8 nM.

For `CCN1C(=O)CC[C@H]1C(=O)NCc1ccc(C)cc1C`, the IC50 was 158 nM.

For the compound `CCN1C(=O)CC[C@H]1C(=O)NCc1c(C)cccc1Cl`, the IC50 was 100 nM.

For `CCN1C(=O)CC[C@H]1C(=O)NCc1c(F)ccc(C)c1Cl`, the concentration for half-maximal inhibition (IC50) was 158 nM.

For the compound `CCN1C(=O)CC[C@H]1C(=O)NCc1c(Cl)ccc(C)c1F`, the half-maximal inhibitory concentration (IC50) is 794 nM.

Take `CCN1C(=O)CC[C@H]1C(=O)NCc1cccc(Cl)c1C`: the IC50 is 15.8 nM.

In the case of `CCN1C(=O)CC[C@H]1C(=O)NCc1cccc(F)c1F`, the half-inhibitory concentration (IC50) is 398 nM.

Regarding `CCN1C(=O)CC[C@H]1C(=O)NCc1c(Cl)cccc1Cl`, the IC50 is 100 nM.

In the case of `CCN1C(=O)CC[C@H]1C(=O)NCc1ccc(F)c(C(F)(F)F)c1`, the IC50 was 79.4 nM.

`CCN1C(=O)CC[C@H]1C(=O)NCc1ccc(Cl)c(C(F)(F)F)c1`: the half-maximal inhibitory concentration (IC50) was 79.4 nM.

`CCN1C(=O)CC[C@H]1C(=O)NCc1ccc(C(F)(F)F)cc1`: the IC50 is 200 nM.

For the compound `CCN1C(=O)CC[C@H]1C(=O)NCc1ccc(Br)cc1F`, the concentration for half-maximal inhibition (IC50) is 39.8 nM.

Broadly, the IC50 is the midpoint of a concentration-inhibition curve.
